We go through three compounds from paper PMC8878140, “Inhibitory Effects of Nitrogenous Metabolites from a Marine-Derived Streptomyces bacillaris on Isocitrate Lyase of Candida albicans” (Marine Drugs, 2022).

For experiment [1], the target named is T1, isocitrate lyase (ICL) (Candida albicans, UniProt Q9P8Q7).
T1 construct: gene ICL1; purified recombinant ICL
The experiment can be described thus: enzyme assay, absorbance at […] nm (phenylhydrazine); Lineweaver-Burk and Dixon plots. Type of experiment: biochemical.

For experiment [2], the target named is T1, isocitrate lyase (ICL). The experiment can be described thus: biochemical.

T1 sequence (Q9P8Q7 whole entry): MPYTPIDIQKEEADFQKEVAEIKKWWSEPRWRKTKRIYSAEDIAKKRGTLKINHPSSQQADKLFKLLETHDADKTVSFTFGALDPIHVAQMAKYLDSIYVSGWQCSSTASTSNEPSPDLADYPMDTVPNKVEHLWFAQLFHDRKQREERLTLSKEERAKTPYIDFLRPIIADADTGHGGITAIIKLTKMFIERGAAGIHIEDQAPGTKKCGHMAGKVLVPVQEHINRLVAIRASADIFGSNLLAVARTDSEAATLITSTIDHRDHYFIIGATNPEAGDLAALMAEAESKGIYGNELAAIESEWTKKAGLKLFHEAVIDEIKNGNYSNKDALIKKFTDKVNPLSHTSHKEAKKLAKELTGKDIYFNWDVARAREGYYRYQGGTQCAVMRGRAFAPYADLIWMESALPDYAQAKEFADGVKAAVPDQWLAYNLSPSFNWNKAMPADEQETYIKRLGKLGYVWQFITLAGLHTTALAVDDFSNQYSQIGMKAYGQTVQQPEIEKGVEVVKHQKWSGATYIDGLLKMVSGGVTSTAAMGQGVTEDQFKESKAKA

A word on the IC50: it is the midpoint of a concentration-inhibition curve. Regarding `CS[C@]12CC[C@H](O)[C@H]1C(=O)NC2=O` [compound 1, bacillimide], on isocitrate lyase (ICL) [1], half-maximal inhibition (IC50) required 44.2 µM.

Take `O=C(O)CC[N+](=O)[O-]` [3-nitropropionate, reference compound]: the midpoint of inhibition on isocitrate lyase (ICL) [2], the IC50, lay at 21.5 µM.

As to `C[S+]([O-])CCNC(=O)c1ccc[nH]1` (stereo not drawn) [compound 2, N-(2-(methylsulfinyl)ethyl)-1H-pyrrole-2-carboxamide], at isocitrate lyase (ICL) [2] (read-out: ICL IC50), the IC50 came to 190 µM.
